How the values were obtained:
[1] = target: Proto-oncogene tyrosine-protein kinase receptor Ret (Homo sapiens, UniProt P07949); assay: Inhibition of recombinant Ret (unknown origin) using poly (Glu,Tyr) 4:1 as substrate after 60 mins by ELISA
[2] = target: T1, Tyrosine-protein kinase Mer (Homo sapiens, UniProt Q12866); assay: Inhibition of recombinant Mer (unknown origin) using poly (Glu,Tyr) 4:1 as substrate after 60 mins by ELISA
T1 sequence (Q12866 whole entry): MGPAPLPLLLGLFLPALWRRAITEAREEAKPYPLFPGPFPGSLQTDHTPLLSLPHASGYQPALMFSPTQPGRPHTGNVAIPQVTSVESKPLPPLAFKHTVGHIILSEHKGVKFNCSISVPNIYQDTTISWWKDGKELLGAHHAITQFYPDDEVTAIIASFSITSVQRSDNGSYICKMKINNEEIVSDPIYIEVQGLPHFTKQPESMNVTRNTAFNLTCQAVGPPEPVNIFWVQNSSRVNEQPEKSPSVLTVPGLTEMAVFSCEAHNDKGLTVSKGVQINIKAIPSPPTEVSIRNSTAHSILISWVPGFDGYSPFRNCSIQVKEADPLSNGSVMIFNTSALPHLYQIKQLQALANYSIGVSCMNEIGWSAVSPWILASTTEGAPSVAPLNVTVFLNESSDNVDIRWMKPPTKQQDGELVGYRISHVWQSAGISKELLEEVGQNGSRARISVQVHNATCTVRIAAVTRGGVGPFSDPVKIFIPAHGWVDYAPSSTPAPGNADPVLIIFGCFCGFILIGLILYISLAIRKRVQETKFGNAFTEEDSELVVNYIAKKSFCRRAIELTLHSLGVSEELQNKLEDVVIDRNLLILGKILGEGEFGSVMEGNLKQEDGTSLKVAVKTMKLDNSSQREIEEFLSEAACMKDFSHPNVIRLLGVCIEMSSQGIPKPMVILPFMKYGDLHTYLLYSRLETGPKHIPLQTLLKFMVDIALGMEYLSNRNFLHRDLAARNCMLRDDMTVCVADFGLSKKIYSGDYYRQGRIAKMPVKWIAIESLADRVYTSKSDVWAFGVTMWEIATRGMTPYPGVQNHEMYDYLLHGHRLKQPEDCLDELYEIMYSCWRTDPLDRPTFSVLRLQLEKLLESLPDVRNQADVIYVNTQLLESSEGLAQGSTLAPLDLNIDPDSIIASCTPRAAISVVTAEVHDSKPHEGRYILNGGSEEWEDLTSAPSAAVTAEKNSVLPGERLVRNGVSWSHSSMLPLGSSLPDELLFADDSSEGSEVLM

[3] = target: Platelet-derived growth factor receptor beta (Homo sapiens, UniProt P09619); assay: Inhibition of recombinant PDGFR-beta (unknown origin) using poly (Glu,Tyr) 4:1 as substrate after 60 mins by ELISA
[4] = target: Cyclin-dependent kinase 6 (Homo sapiens, UniProt Q00534); assay: Inhibition of CDK6 (unknown origin) by FRET assay
[5] = target: Leukocyte tyrosine kinase receptor (Homo sapiens, UniProt P29376); assay: Inhibition of recombinant LTK (unknown origin) using poly (Glu,Tyr) 4:1 as substrate after 60 mins by ELISA
[6] = target: Proto-oncogene tyrosine-protein kinase ROS (Homo sapiens, UniProt P08922); assay: Inhibition of recombinant ROS1 (unknown origin) using poly (Glu,Tyr) 4:1 as substrate after 60 mins by ELISA
Ephrin type-A receptor 2 = Ephrin type-A receptor 2 (Homo sapiens, UniProt P29317); assay: Inhibition of recombinant EPH-A2 (unknown origin) using poly (Glu,Tyr) 4:1 as substrate after 60 mins by ELISA
[7] = target: Platelet-derived growth factor receptor alpha (Homo sapiens, UniProt P16234); assay: Inhibition of recombinant PDGFR-alpha (unknown origin) using poly (Glu,Tyr) 4:1 as substrate after 60 mins by ELISA
[8] = target: Fibroblast growth factor receptor 2 (Homo sapiens, UniProt P21802)
Description: Inhibition of recombinant human FGFR2 using poly (Glu,Tyr) 4:1 as substrate after 60 mins by ELISA

[9] = target: Receptor tyrosine-protein kinase erbB-4 (Homo sapiens, UniProt Q15303); assay: Inhibition of recombinant ErbB4 (unknown origin) using poly (Glu,Tyr) 4:1 as substrate after 60 mins by ELISA
[10] = target: Mast/stem cell growth factor receptor Kit (Homo sapiens, UniProt P10721); assay: Inhibition of recombinant c-Kit (unknown origin) using poly (Glu,Tyr) 4:1 as substrate after 60 mins by ELISA
[11] = target: ALK tyrosine kinase receptor (Homo sapiens, UniProt Q9UM73)
Description: Inhibition of recombinant ALK (unknown origin) using poly (Glu,Tyr) 4:1 as substrate after 60 mins by ELISA

[12] = target: Fibroblast growth factor receptor 4 (Homo sapiens, UniProt P22455); assay: Inhibition of recombinant human FGFR4 using poly (Glu,Tyr) 4:1 as substrate after 60 mins by ELISA
[13] = target: Fibroblast growth factor receptor 1 (Homo sapiens, UniProt P11362); assay: Inhibition of recombinant human FGFR1 using poly (Glu,Tyr) 4:1 as substrate after 60 mins by ELISA
[14] = MRT in Sprague-Dawley rat at 20 mg/kg, po by LC-MS/MS method; type: ADME, organism-based; conditions: in vivo
[15] = Tmax in CD-1 mouse at 20 mg/kg, po by LC-MS/MS method; type: ADME, organism-based; conditions: in vivo
[16] = AUC (0 to t) in Sprague-Dawley rat at 20 mg/kg, po by LC-MS/MS method; type: ADME, organism-based; conditions: in vivo
Mus musculus [17] = assay: Toxicity in nude mouse xenografted with human NCI-H1581 cells assessed as emaciation at 20 mg/kg, po qd administered for 14 days; type: organism-based; conditions: in vivo, 336 h
[18] = Tmax in CD-1 mouse at 5 mg/kg, iv by LC-MS/MS method; type: ADME, organism-based; conditions: in vivo
Mus musculus [19] = assay: Toxicity in nude mouse xenografted with human NCI-H1581 cells assessed as diarrhea at 20 mg/kg, po qd administered for 14 days; type: organism-based; conditions: in vivo, 336 h
[20] = Cmax in Sprague-Dawley rat at 10 mg/kg, iv by LC-MS/MS method; type: ADME, organism-based; design: dose 10 mg/kg, route intravenous; conditions: in vivo
[21] = MRT in Sprague-Dawley rat at 10 mg/kg, iv by LC-MS/MS method; type: ADME, organism-based; conditions: in vivo
Mus musculus [22] = assay: Toxicity in nude mouse xenografted with human NCI-H1581 cells assessed as body weight loss at 20 mg/kg, po qd administered for 14 days; type: organism-based; conditions: in vivo, 336 h
[23] = Apparent clearance in Sprague-Dawley rat at 10 mg/kg, iv by LC-MS/MS method; type: ADME, organism-based; conditions: in vivo, read-out: CL(app) (converted)
[24] = Inhibition of FGFR3 mutant in human UM-UC-14 cells assessed as inhibition of cell proliferation after 72 hrs by cell counting kit-8 assay; type: cell-based; conditions: UMUC14, 72 h
[25] = Cmax in CD-1 mouse at 20 mg/kg, po by LC-MS/MS method; type: ADME, organism-based; design: dose 20 mg/kg, route oral; conditions: in vivo
[26] = target: Discoidin domain-containing receptor 2 (Homo sapiens, UniProt Q16832); assay: Inhibition of recombinant DDR2 (unknown origin) using poly (Glu,Tyr) 4:1 as substrate after 60 mins by ELISA
[27] = Cmax in Sprague-Dawley rat at 20 mg/kg, po by LC-MS/MS method; type: ADME, organism-based; design: dose 20 mg/kg, route oral; conditions: in vivo

Fibroblast growth factor receptor 2, sequence (P21802 whole entry): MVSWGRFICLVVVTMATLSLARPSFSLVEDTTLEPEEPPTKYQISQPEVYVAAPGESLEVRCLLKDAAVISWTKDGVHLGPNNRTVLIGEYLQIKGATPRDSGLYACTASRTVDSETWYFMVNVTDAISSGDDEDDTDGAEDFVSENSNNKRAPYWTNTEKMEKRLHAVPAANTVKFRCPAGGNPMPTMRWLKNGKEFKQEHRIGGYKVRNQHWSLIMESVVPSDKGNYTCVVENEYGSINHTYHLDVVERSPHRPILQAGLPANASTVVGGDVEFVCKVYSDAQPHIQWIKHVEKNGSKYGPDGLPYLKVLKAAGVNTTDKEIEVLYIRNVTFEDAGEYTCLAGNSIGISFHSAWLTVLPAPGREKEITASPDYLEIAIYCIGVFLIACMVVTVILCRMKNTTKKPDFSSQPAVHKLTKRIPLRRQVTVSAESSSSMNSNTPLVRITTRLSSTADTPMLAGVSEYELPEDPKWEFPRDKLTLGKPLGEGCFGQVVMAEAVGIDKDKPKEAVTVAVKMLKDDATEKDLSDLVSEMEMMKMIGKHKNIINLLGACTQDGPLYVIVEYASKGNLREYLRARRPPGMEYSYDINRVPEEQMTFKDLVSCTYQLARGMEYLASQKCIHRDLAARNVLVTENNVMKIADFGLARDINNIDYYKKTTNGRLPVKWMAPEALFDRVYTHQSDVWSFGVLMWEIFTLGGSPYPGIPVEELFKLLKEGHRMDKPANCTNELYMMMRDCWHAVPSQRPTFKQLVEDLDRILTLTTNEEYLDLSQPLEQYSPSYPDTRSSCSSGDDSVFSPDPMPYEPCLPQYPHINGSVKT
Proto-oncogene tyrosine-protein kinase receptor Ret, sequence (P07949 whole entry): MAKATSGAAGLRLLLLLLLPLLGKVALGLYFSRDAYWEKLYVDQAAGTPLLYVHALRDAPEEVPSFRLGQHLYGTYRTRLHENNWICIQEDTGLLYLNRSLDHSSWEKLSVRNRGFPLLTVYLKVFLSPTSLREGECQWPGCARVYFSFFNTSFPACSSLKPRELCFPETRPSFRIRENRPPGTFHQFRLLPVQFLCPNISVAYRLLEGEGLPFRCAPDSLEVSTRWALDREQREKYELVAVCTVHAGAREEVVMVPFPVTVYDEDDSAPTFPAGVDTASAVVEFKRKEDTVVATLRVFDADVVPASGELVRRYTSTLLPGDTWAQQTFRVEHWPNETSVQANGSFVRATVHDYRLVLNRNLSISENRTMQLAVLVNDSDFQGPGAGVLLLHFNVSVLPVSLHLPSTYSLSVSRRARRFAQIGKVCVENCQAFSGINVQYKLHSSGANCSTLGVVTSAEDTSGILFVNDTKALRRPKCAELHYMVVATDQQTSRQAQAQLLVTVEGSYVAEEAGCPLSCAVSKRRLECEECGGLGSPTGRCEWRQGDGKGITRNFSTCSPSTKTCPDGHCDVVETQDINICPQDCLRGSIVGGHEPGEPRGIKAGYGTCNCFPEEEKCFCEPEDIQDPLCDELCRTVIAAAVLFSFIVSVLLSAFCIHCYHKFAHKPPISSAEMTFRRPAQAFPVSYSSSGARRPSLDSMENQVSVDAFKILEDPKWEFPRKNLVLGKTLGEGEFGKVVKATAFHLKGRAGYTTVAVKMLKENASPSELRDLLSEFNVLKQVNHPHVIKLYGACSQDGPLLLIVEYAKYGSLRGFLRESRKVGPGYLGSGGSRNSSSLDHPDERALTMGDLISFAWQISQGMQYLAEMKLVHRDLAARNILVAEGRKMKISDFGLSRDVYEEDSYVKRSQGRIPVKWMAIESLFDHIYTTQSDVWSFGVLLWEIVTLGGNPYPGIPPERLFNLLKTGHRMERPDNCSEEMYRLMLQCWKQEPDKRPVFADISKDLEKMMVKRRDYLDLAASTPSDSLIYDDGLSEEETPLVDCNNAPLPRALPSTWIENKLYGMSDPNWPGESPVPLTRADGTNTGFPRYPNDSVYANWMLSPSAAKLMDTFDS
Mast/stem cell growth factor receptor Kit, sequence (P10721 whole entry): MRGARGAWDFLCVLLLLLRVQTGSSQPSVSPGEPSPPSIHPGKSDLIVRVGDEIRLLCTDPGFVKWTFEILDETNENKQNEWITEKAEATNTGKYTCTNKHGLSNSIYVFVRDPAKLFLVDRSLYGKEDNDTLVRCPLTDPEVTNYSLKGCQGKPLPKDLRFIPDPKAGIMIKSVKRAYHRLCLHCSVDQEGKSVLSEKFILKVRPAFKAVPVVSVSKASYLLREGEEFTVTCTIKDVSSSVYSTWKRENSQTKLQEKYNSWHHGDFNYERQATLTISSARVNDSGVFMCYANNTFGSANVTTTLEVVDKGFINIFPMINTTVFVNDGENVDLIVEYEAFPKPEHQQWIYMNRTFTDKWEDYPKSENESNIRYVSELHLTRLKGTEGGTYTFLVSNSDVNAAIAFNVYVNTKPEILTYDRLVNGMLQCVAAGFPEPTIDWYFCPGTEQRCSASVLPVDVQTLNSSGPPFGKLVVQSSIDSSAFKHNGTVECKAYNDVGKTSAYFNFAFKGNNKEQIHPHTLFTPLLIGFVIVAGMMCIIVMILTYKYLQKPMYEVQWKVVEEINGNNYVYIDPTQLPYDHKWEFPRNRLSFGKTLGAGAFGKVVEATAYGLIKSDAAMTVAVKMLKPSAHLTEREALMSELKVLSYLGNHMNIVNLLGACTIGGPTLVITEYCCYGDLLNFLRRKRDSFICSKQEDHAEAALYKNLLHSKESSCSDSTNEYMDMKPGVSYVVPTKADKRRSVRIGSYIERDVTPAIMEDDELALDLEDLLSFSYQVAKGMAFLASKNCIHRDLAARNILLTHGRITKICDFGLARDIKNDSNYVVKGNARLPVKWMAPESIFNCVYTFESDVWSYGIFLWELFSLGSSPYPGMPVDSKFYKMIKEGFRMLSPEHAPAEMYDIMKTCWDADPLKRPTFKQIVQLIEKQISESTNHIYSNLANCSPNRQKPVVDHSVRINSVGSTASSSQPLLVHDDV
Platelet-derived growth factor receptor alpha, sequence (P16234 whole entry): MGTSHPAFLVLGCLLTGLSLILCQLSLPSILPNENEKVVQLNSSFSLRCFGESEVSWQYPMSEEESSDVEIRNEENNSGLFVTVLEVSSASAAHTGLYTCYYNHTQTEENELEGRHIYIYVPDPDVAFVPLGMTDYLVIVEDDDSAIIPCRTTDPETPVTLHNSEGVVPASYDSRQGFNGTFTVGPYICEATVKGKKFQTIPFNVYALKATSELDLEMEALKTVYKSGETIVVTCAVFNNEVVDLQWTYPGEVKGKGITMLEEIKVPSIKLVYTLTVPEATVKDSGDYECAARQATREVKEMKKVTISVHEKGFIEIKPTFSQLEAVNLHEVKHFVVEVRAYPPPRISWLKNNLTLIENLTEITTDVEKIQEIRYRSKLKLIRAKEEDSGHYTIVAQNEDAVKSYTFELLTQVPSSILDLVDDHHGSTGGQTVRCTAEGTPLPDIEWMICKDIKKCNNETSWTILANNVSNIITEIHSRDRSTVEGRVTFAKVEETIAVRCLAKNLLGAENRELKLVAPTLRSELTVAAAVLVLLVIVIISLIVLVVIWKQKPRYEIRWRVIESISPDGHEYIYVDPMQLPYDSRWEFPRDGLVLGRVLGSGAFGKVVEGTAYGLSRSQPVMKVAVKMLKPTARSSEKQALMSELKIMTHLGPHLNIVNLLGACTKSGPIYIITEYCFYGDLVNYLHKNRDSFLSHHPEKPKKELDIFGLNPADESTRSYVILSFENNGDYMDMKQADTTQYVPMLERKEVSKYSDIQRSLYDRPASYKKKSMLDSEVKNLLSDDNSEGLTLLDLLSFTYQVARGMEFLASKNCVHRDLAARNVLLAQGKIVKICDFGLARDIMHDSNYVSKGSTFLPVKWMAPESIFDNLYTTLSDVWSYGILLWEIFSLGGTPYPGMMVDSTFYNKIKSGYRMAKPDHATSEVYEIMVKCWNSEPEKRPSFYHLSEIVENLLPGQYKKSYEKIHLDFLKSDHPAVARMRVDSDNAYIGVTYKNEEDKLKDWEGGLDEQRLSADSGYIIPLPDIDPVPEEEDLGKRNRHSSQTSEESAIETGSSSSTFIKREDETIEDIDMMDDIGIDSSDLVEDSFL
Fibroblast growth factor receptor 4, sequence (P22455 whole entry): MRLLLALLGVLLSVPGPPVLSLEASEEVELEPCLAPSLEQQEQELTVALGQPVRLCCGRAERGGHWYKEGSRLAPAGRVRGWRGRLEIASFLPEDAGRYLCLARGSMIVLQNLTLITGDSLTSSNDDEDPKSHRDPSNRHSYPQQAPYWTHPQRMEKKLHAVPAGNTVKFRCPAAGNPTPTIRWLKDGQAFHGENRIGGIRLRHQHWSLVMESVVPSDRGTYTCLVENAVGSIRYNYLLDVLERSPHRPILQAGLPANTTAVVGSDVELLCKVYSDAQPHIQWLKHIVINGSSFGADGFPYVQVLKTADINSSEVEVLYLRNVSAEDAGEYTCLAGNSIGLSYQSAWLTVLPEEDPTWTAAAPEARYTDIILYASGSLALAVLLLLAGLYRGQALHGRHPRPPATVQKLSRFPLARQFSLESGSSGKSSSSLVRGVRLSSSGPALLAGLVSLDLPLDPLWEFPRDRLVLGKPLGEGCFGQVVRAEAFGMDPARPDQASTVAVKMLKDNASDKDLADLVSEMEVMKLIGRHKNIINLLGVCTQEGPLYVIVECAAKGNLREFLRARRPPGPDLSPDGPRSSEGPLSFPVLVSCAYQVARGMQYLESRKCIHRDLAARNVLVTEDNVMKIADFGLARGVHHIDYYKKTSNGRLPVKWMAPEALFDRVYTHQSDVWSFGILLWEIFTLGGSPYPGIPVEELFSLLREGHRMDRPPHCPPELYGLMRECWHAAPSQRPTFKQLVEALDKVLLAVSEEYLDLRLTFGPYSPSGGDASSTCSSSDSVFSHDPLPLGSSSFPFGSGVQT

Row | IC50 [1] [nM] | IC50 [2] [nM] | IC50 [3] [nM] | IC50 [4] [nM] | IC50 [5] [nM] | IC50 [6] [nM] | IC50 (Ephrin type-A receptor 2) [nM] | IC50 [7] [nM] | IC50 [8] [nM] | IC50 [9] [nM] | IC50 [10] [nM] | IC50 [11] [nM] | IC50 [12] [nM] | IC50 [13] [nM] | SMILES | also measured
1 | 0.04 | 4.4 | 1 to 10 | > 1000 | 45.3 | 168 | > 100 | > 100 | 2 | 5 | > 10 | 93.9 | 7.4 | 16.1 | OC[C@H](Nc1cnc(-c2cc(Cl)ccc2O)c(-c2ccc3cnccc3c2)c1)c1ccccc1 | –
2 | 0.7 | 30.9 | > 100 | > 1000 | 300 | 273 | > 10 | > 100 | 8.6 | 5.3 | > 10 | 231 | 61.7 | 55.8 | Cc1n[nH]c2ccc(-c3cc(N[C@@H](CO)c4ccccc4)cnc3-c3cc(Cl)ccc3O)cc12 | –
3 | 0.2 | 36.9 | > 10 | > 1000 | 123 | > 1000 | > 10 | > 100 | 1.6 | 6.2 | > 10 | 101 | 299 | 18 | Cc1n[nH]c2ccc(-c3cc(N[C@@H](CO)c4ccccc4)cnc3-c3cc(F)ccc3O)cc12 | MRT [14]: 6.72 h; Tmax [15]: 0.42 h; AUC(0-t) [16]: 16600 ng·h/mL; Activity (Mus musculus [17]): Toxic; Tmax [18]: 1.5 h; Activity (Mus musculus [19]): Toxic; Cmax [20]: 6540 ng/mL; MRT [21]: 3.41 h; Activity (Mus musculus [22]): Toxic; clearance [23]: 12.1 mL/min/kg; IC50 [24]: 128 nM; Cmax [25]: 961 ng/mL; IC50 [26]: 0.8 nM; Cmax [27]: 2080 ng/mL
4 | 0.4 | 7.1 | 1 to 10 | > 1000 | 68.5 | > 1000 | > 100 | > 100 | 4.7 | 2.4 | > 10 | 155 | 93.3 | 25.2 | Cc1n[nH]c2ccc(-c3cc(N[C@@H](CO)c4ccccc4)cnc3-c3ccc(F)cc3O)cc12 | –
